Like-named read-outs stand apart in the source and are kept apart here.
System: U937 cells
Test: Cellular assay in U937 cells, TNFα/zVAD.fmk-induced cell death (necroptosis), MTS readout
Type: cell-based
Conditions: Homo sapiens, U-937
Source text: Cellular Assay in U937 Cells to Measure the Activity of RIPK1-Inhibitors on Cell Death (Necroptosis).
Upon TNF-Receptor I ligation, Ser/Thr kinase RIPK1 is recruited to a transient receptor complex I. Upon modification of RIPK1 which promotes activation of RIPK1, complex […] can form, that involves recruitment of RIPK3 and MLKL (mixed lineage-kinase domain-like protein) which then translocates from the cytosol to the plasma membrane to execute cell death (Cai, Z. et al, Nat. Cell Biol. (2014)16:55-65).
Cell death was quantified in 96 well plates by determination of the amount of live cell using a CellTiter 96 AQueous reagent (Promega), a calorimetric method to measure the amount of live cells by reducing tetrazolium compound [3-(4,5-dimethylthiazol-2-yl)-5-(3-carboxymethoxyphenyl)-2-(4-sulfophenyl)-2H-tetrazolium, inner salt; MTS] into formazan. Absorbance of formazan was read at 490 nm. The inhibitory activity of the test compound was quantified in a concentration response curve (CRC) experiment. Compounds were obtained as 10 mM stock solutions and were diluted 1 to 10 volumes with DMSO to yield a 1 mM solution. From this solution 2 μl were diluted with 998 μl growth medium. 100 μl of 2 μM compound solution was further diluted sequentially with a dilution factor of 2.5 by adding 150 μl growth medium. A total of 10 concentrations were tested ranging from 10 μM to 0.26 nM or from 1 μM to 0.07 nM.
U937 cells were cultured in RPM11640 Glutamax and 10% heat inactivated FBS. 50 μl cell suspension containing 1×10^6 cells/ml supplemented with 50 μM zVAD.fmk (Benzyloxycarbonyl-Val-Ala-Asp (OMe) fluoromethylketone) and 100 ng/ml recombinant human TNFα were dispensed in each well of a 96-well plate. 50 μl of compound dilutions (see above) were added and the cell suspension incubated overnight (18 to 24 hrs) at 37° C., 5% CO2 in a humidified atmosphere (95% rH). High (no compound) and low control (no TNFα, zVAD.fmk) were tested with 7 replicates; all compound concentrations were tested in duplicates on each experimental plate.
CellTiter 96 Aqueous reagent was mixed (100 μl PMS (phenazine methosulfate) solution/2 ml MTS (3-(4,5-[…])-5-(3-carboxymethoxyphenyl)-2-(4-sulfophenyl)-2H-tetrazolium, inner salt) solution) and 20 μl were added per well. After 4 hrs incubation at 37° C. (5% CO2 95% rH) optical density was measured at 490 nm on a microplate reader (Tecan Infinite M1000).
The % inhibition is expressed as percentage of the maximal inhibition value obtained in the absence of TNFα/zVAD.fmc.

[1] = U937 cells, 100 ng/ml TNFα + 50 μM zVAD.fmk, overnight (18 to 24 hrs), read-out: U937 IC50
[2] = own data, read-out: IC50 (U937)

Cn1nccc1-c1cc(N2CCC(C(=O)N3OCC[C@H]3c3cc(F)cc(C#N)c3)CC2)ncn1 [Example 3, 3-Fluoro-5-[(3S)-2-[1-[6-(2-methylpyrazol-3-yl)pyrimidin-4-yl]piperidine-4-carbonyl]isoxazolidin-3-yl]benzonitrile] was tested, and the IC50 [1] was 8.1 nM.

Molecule Cc1n[nH]cc1-c1cc(N2CCC(C(=O)N3OCC[C@H]3c3cc(F)cc(C#N)c3)CC2)ncn1 [Example 6, 3-Fluoro-5-[(3S)-2-[1-[6-(3-methyl-1H-pyrazol-4-yl)pyrimidin-4-yl]piperidine-4-carbonyl]isoxazolidin-3-yl]benzonitrile] has an IC50 [1] of 11.7 nM.

In the case of Cc1cnn(-c2ncnc(N3CCC(C(=O)N4OCC[C@H]4c4cc(F)c(C)c(C#N)c4)CC3)c2F)c1 [Example 14, 3-Fluoro-5-[(3S)-2-[1-[5-fluoro-6-(4-methylpyrazol-1-yl)pyrimidin-4-yl]piperidine-4-carbonyl]isoxazolidin-3-yl]-2-methyl-benzonitrile], the IC50 [1] is reported as 3.4 nM.

Molecule Cc1c(F)cc([C@@H]2CCON2C(=O)C2CCN(c3cc(-n4cc(C5CC5)nc4C)ncn3)CC2)cc1C#N [Example 8, 5-[(3S)-2-[1-[6-(4-Cyclopropyl-2-methyl-imidazol-1-yl)pyrimidin-4-yl]piperidine-4-carbonyl]isoxazolidin-3-yl]-3-fluoro-2-methyl-benzonitrile] has an IC50 [1] of 1 nM and an IC50 [2] of 1 nM.

For Cc1nnc(-c2cc(N3CCC(C(=O)N4OCC[C@H]4c4cc(F)cc(C#N)c4)CC3)ncn2)o1 [Comparator Example E, 3-Fluoro-5-[(3S)-2-[1-[6-(5-methyl-1,3,4-oxadiazol-2-yl)pyrimidin-4-yl]piperidine-4-carbonyl]isoxazolidin-3-yl]benzonitrile, reference compound], the IC50 [1] was 197 nM and the IC50 [2] was 197 nM.

O=C(C1CCN(c2nccc(-c3ccccc3)n2)CC1)N1OCC[C@H]1c1ccccc1 [Comparator Example B, [(3S)-3-Phenylisoxazolidin-2-yl]-[1-(4-phenylpyrimidin-2-yl)-4-piperidyl]methanone, reference compound] showed an IC50 [1] of 9.4 nM and an IC50 [2] of 9 nM.

With Cn1nncc1-c1cc(N2CCC(C(=O)N3OCC[C@H]3c3cc(F)cc(C#N)c3)CC2)ncn1 [Example 12, 3-Fluoro-5-[(3S)-2-[1-[6-(3-methyltriazol-4-yl)pyrimidin-4-yl]piperidine-4-carbonyl]isoxazolidin-3-yl]benzonitrile] the IC50 [1] was 7 nM.

Cc1ncnn1-c1cc(N2CCC(C(=O)N3OCC[C@H]3c3cc(F)cc(C#N)c3)CC2)ncn1 [Example 11, 3-Fluoro-5-[(3S)-2-[1-[6-(5-methyl-1,2,4-triazol-1-yl)pyrimidin-4-yl]piperidine-4-carbonyl]isoxazolidin-3-yl]benzonitrile] was tested, and the IC50 [1] was 9.3 nM.

With Cn1nccc1-c1ncnc(N2CCC(C(=O)N3OCC[C@H]3c3cc(F)cc(F)c3)CC2)c1F [Example 15, [(3S)-3-(3,5-Difluorophenyl)isoxazolidin-2-yl]-[1-[5-fluoro-6-(2-methylpyrazol-3-yl)pyrimidin-4-yl]-4-piperidyl]methanone] the IC50 [1] was 0.4 nM.

Cc1nccn1-c1cc(N2CCC(C(=O)N3OCC[C@H]3c3cc(F)cc(C#N)c3)CC2)ncn1 [Example 1, 3-Fluoro-5-[(3S)-2-[1-[6-(2-methylimidazol-1-yl)pyrimidin-4-yl]piperidine-4-carbonyl]isoxazolidin-3-yl]benzonitrile] was tested, and the IC50 [1] was 5.9 nM.

Work on Cn1nccc1-c1cc(N2CCC(C(=O)N3OCC[C@H]3c3cc(F)cc(Cl)c3)CC2)ncn1 [Example 5, [(3S)-3-(3-Chloro-5-fluoro-phenyl)isoxazolidin-2-yl]-[1-[6-(2-methylpyrazol-3-yl)pyrimidin-4-yl]-4-piperidyl]methanone] yielded an IC50 [1] of 3 nM.

In the case of Cn1nccc1-c1cc(N2CCC(C(=O)N3OCC[C@H]3c3cc(F)cc(F)c3)CC2)ncn1 [Example 4, [(3S)-3-(3,5-Difluorophenyl)isoxazolidin-2-yl]-[1-[6-(2-methylpyrazol-3-yl)pyrimidin-4-yl]-4-piperidyl]methanone], the IC50 [1] is reported as 5 nM.

Molecule Cc1nccn1-c1ncnc(N2CCC(C(=O)N3OCC[C@H]3c3cc(F)cc(C#N)c3)CC2)c1F [Example 13, 3-Fluoro-5-[(3S)-2-[1-[5-fluoro-6-(2-methylimidazol-1-yl)pyrimidin-4-yl]piperidine-4-carbonyl]isoxazolidin-3-yl]benzonitrile] has an IC50 [1] of 4.3 nM.

In the case of O=C(C1CCN(c2nccc(-c3ccccc3)n2)CC1)N1N=CCC1c1ccccc1 (centres unmarked) [Comparator Example A, (3-Phenyl-3,4-dihydropyrazol-2-yl)-[1-(4-phenylpyrimidin-2-yl)-4-piperidyl]methanone, reference compound], the IC50 [1] is reported as 8 nM and the IC50 [2] is reported as 8 nM.

For Cc1ncn(-c2cc(N3CCC(C(=O)N4OCC[C@H]4c4cc(F)cc(C#N)c4)CC3)ncn2)n1 [Example 10, 3-Fluoro-5-[(3S)-2-[1-[6-(3-methyl-1,2,4-triazol-1-yl)pyrimidin-4-yl]piperidine-4-carbonyl]isoxazolidin-3-yl]benzonitrile], the IC50 [1] was 2 nM.

Cc1nnc(-c2cc(N3CCC(C(=O)N4N=CC[C@H]4c4ccccc4)CC3)ncn2)o1 [Comparator Example C, [1-[6-(5-Methyl-1,3,4-oxadiazol-2-yl)pyrimidin-4-yl]-4-piperidyl]-[(3S)-3-phenyl-3,4-dihydropyrazol-2-yl]methanone, reference compound] was tested, and the IC50 [1] was 59 nM and the IC50 (own data, read-out: pIC50 (U937) (converted)) was 59 nM.

Molecule Cc1nnc(-c2cc(N3CCC(C(=O)N4OCC[C@H]4c4ccccc4)CC3)ncn2)o1 [Comparator Example D, [1-[6-(5-Methyl-1,3,4-oxadiazol-2-yl)pyrimidin-4-yl]-4-piperidyl]-[(3S)-3-phenylisoxazolidin-2-yl]methanone, reference compound] has an IC50 [1] of 92 nM and an IC50 [2] of 92 nM.

Cc1c(F)cc([C@@H]2CCON2C(=O)C2CCN(c3cc(-n4ccnc4C)ncn3)CC2)cc1C#N [Example 2, 3-Fluoro-2-methyl-5-[(3S)-2-[1-[6-(2-methylimidazol-1-yl)pyrimidin-4-yl]piperidine-4-carbonyl]isoxazolidin-3-yl]benzonitrile] showed an IC50 [1] of 3.8 nM.

For Cc1cc(-c2cc(N3CCC(C(=O)N4OCC[C@H]4c4cc(F)cc(C#N)c4)CC3)ncn2)n(C)n1 [Example 9, 3-[(3S)-2-[1-[6-(2,5-Dimethylpyrazol-3-yl)pyrimidin-4-yl]piperidine-4-carbonyl]isoxazolidin-3-yl]-5-fluoro-benzonitrile], the IC50 [1] was 15 nM.

Molecule Cc1nc(C2CC2)cn1-c1cc(N2CCC(C(=O)N3OCC[C@H]3c3cc(F)cc(C#N)c3)CC2)ncn1 [Example 7, 3-[(3S)-2-[1-[6-(4-Cyclopropyl-2-methyl-imidazol-1-yl)pyrimidin-4-yl]piperidine-4-carbonyl]isoxazolidin-3-yl]-5-fluoro-benzonitrile] has an IC50 [1] of 3.6 nM.
